Some test systems named below: K562; OVCAR-5; HT-29; NCI-H23; TK-10; HOP-92; NCI-H460; SK-MEL-2; OVCAR-3; HCT-15; MOLT-4; A498; MDA-N; RXF 393; MDA-MB-231; OVCAR-4; NCI-H226; COLO 205; SF-295; HL-60.
What all share (test): DTP human tumour cell line panel, 48 h

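In this assay, cells in 96-well plates receive the compound at five concentrations for 48 hours. Endpoints are linearly interpolated between the surrounding concentrations. GI50 = concentration required for 50% inhibition of growth.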 Active and inactive are the calls of the source. Cut-off read from the data, not from the text of the source: active = GI50 up to about 1.1 µM and inactive = higher. Some results are limits rather than exact numbers.

A word on the GI50: it is the concentration giving 50% growth inhibition. Consider `CN(C)c1c(C2OC(CO)C(O)C2O)c(=O)c1=O` (configuration not stated), for which the GI50 in the test on K562, in the test with OVCAR-5, in the test with HT-29, with NCI-H23, with TK-10 and in the test on HOP-92 was > 100 µM (inactive) each time. The GI50 is > 100 µM (inactive) in the test on NCI-H460; > 100 µM (inactive) with SK-MEL-2; > 100 µM (inactive) in the test with OVCAR-3; over 100 µM in the test with HCT-15; > 100 µM (inactive) in the test with MOLT-4; > 100 µM (inactive) with A498. The GI50 with MDA-N, in the test with RXF 393, in the test on MDA-MB-231, with OVCAR-4 and in the test with NCI-H226 was > 100 µM (inactive) each time.

Consider `Cc1c(S(=O)(=O)N/C(=N\O)Nc2ccc(Cl)cc2)sc2ccc(Cl)cc12`, for which the GI50 with K562 is 31 µM (inactive); in the test on OVCAR-5, 18.1 µM (inactive); in the test on COLO 205, 15.9 µM (inactive); with HT-29, 19.3 µM (inactive); in the test with NCI-H23, 18 µM (inactive); in the test with TK-10, 16.9 µM (inactive). For the same molecule, the GI50 with HOP-92 was 14.6 µM (inactive); in the test with SF-295, 17.6 µM (inactive); in the test with NCI-H460, 24.8 µM (inactive); in the test on SK-MEL-2 it was 18.7 µM (inactive); in the test on OVCAR-3, 11.3 µM (inactive); in the test on HCT-15, 16.6 µM. In addition, the GI50 in the test on MOLT-4 is 27.2 µM (inactive); in the test on MDA-N, 18.2 µM (inactive); with RXF 393, 22.3 µM (inactive); in the test with MDA-MB-231, 20.1 µM (inactive); with OVCAR-4, 16.9 µM (inactive); in the test with HL-60, 19.3 µM (inactive). Moreover, the GI50 in the test with NCI-H226 is 17.7 µM (inactive).

In the case of `Oc1cc(CF)nc(S)n1`, the GI50 in the test on K562, in the test on OVCAR-5, in the test with HT-29, in the test on NCI-H23, in the test with TK-10 and in the test with HOP-92 was > 100 µM (inactive) in each case. Also, the GI50 in the test with SF-295 was > 100 µM (inactive); with NCI-H460 it was > 100 µM (inactive); in the test with OVCAR-3 it was > 100 µM (inactive); in the test on HCT-15 it was over 100 µM; in the test on MOLT-4, > 100 µM (inactive); with A498, > 100 µM (inactive). In addition, the GI50 in the test on MDA-N, in the test with RXF 393, in the test on MDA-MB-231, with OVCAR-4 and in the test with NCI-H226 was > 100 µM (inactive) throughout.

In the case of `Cc1c2cccc-2ccc2c1[nH]c1ccc(Br)cc12`, the GI50 was 2.96 µM (inactive) with K562; 3.94 µM (inactive) with OVCAR-5; 2.06 µM (inactive) in the test on COLO 205; 13.2 µM (inactive) in the test with HT-29; 6.44 µM (inactive) with NCI-H23; 17.1 µM (inactive) in the test on TK-10. For the same molecule, the GI50 is 3.61 µM (inactive) in the test on HOP-92; 4.23 µM (inactive) with SF-295; 4.56 µM (inactive) in the test on NCI-H460; 5.62 µM (inactive) in the test with SK-MEL-2; 3.84 µM (inactive) in the test with OVCAR-3; 3.62 µM in the test with HCT-15. Besides, the GI50 in the test with A498 was 21.8 µM (inactive); with MDA-N, 6.32 µM (inactive); with MDA-MB-231, 4.33 µM (inactive); in the test with OVCAR-4 it was 1.96 µM (inactive); in the test with HL-60, 4.15 µM (inactive); with NCI-H226, 2.04 µM (inactive).

As to `Cc1ccc(S(=O)(=O)n2c3ccc(Br)cc3c3nc4ccccc4nc32)cc1`, the GI50 with K562, with OVCAR-5, in the test on COLO 205, in the test on HT-29, in the test with NCI-H23 and with TK-10 was > 100 µM (inactive) in each case. For the same molecule, the GI50 was > 100 µM (inactive) in the test with HOP-92; > 100 µM (inactive) in the test with SF-295; > 100 µM (inactive) in the test with NCI-H460; > 100 µM (inactive) in the test with SK-MEL-2; > 100 µM (inactive) in the test with OVCAR-3; over 100 µM with HCT-15. Besides, the GI50 in the test with MOLT-4 was > 100 µM (inactive); with A498 it was > 100 µM (inactive); in the test on MDA-N, > 100 µM (inactive); with RXF 393, > 100 µM (inactive); in the test with MDA-MB-231 it was > 100 µM (inactive); in the test with OVCAR-4, 72.8 µM (inactive). Further, the 50% growth inhibitory concentration (GI50) in the test on NCI-H226 was 0.183 µM (active).

Turning to `O=[N+]([O-])c1ccc(/N=N/c2c(O)ccc3cc(S(=O)(=O)O)cc(S(=O)(=O)O)c23)cc1`, the GI50 in the test on K562, in the test on OVCAR-5, with COLO 205, in the test with HT-29, with NCI-H23 and in the test with TK-10 was > 100 µM (inactive) in each case. The GI50 was > 100 µM (inactive) in the test with HOP-92; > 100 µM (inactive) in the test on SF-295; > 100 µM (inactive) in the test with SK-MEL-2; > 100 µM (inactive) in the test on OVCAR-3; over 100 µM with HCT-15; > 100 µM (inactive) in the test on MOLT-4. Also, the GI50 in the test on A498, in the test on MDA-N, in the test with RXF 393, with MDA-MB-231, in the test on OVCAR-4 and in the test on NCI-H226 was > 100 µM (inactive) each time.

Consider `Clc1ccc(Cl)c(Nc2ccnc(SCc3ccccc3)n2)c1`, for which the GI50 in the test with K562 was > 100 µM (inactive); in the test on OVCAR-5 it was > 100 µM (inactive); in the test on COLO 205 it was > 100 µM (inactive); with HT-29, 69.8 µM (inactive); in the test with NCI-H23, > 100 µM (inactive); in the test with TK-10, > 100 µM (inactive). Moreover, the GI50 in the test with HOP-92 is > 100 µM (inactive); in the test on SF-295, > 100 µM (inactive); in the test with NCI-H460 it was 54.8 µM (inactive); in the test on SK-MEL-2 it was > 100 µM (inactive); in the test with OVCAR-3 it was > 100 µM (inactive); with HCT-15, over 100 µM. The GI50 was > 100 µM (inactive) in the test with MOLT-4; > 100 µM (inactive) with A498; > 100 µM (inactive) in the test on MDA-N; 20.4 µM (inactive) with RXF 393; > 100 µM (inactive) in the test with MDA-MB-231; > 100 µM (inactive) with OVCAR-4.

As for `COc1ccccc1NC(=S)N/N=C/c1cccc(C)n1`, the GI50 in the test with K562 is 1.27 µM (inactive); in the test with OVCAR-5, > 27.4 µM (inactive); with COLO 205, 1.68 µM (inactive); with HT-29, 4.17 µM (inactive); with NCI-H23, 5.83 µM (inactive); in the test with TK-10 it was 8.99 µM (inactive). For the same molecule, the GI50 was 8.09 µM (inactive) in the test on HOP-92; 4.32 µM (inactive) in the test on SF-295; 2.49 µM (inactive) in the test with NCI-H460; 5.64 µM (inactive) in the test with SK-MEL-2; 1.26 µM (inactive) in the test on OVCAR-3; 2.31 µM in the test with HCT-15. The GI50 in the test with MOLT-4 is 1.34 µM (inactive); in the test on A498, 23.6 µM (inactive); in the test on MDA-N, 4.17 µM (inactive); in the test on MDA-MB-231, 3.52 µM (inactive); with OVCAR-4, 14.2 µM (inactive); in the test with HL-60, 3.15 µM (inactive). In addition, the GI50 in the test with NCI-H226 was 5.82 µM (inactive).

With `CCN(CCCN(CC)C(=O)Nc1c(C)cccc1C)C(=O)Nc1c(C)cccc1C`, the GI50 with K562, with OVCAR-5, with COLO 205, in the test with HT-29, in the test with NCI-H23 and in the test on TK-10 was > 100 µM (inactive) in each case. Also, the GI50 in the test on HOP-92 is > 100 µM (inactive); in the test on SF-295, > 100 µM (inactive); in the test with NCI-H460, > 100 µM (inactive); with SK-MEL-2, > 100 µM (inactive); in the test on HCT-15, over 100 µM; with MOLT-4, > 100 µM (inactive). The GI50 was > 100 µM (inactive) in the test on A498; > 100 µM (inactive) with MDA-N; 43.1 µM (inactive) in the test on RXF 393; > 100 µM (inactive) in the test with MDA-MB-231; > 100 µM (inactive) with OVCAR-4; > 100 µM (inactive) with NCI-H226.

`Oc1c(Br)cc(Br)cc1CN(Cc1cc(Br)cc(Br)c1O)C1CCCCC1`: the GI50 in the test with K562 is 31.6 µM (inactive); in the test on OVCAR-5, 37.6 µM (inactive); with COLO 205, 14.7 µM (inactive); in the test on HT-29 it was 23.7 µM (inactive); in the test on NCI-H23 it was 23.2 µM (inactive); with TK-10, 26.4 µM (inactive). In addition, the GI50 with HOP-92 was 32.5 µM (inactive); in the test with SF-295 it was 21.2 µM (inactive); in the test on SK-MEL-2 it was 20.2 µM (inactive); in the test with OVCAR-3 it was 15.1 µM (inactive); in the test with HCT-15 it was 31.9 µM; with MOLT-4, 43.4 µM (inactive). Besides, the GI50 was 26.7 µM (inactive) with A498; 35.9 µM (inactive) in the test with MDA-N; 31.3 µM (inactive) in the test with RXF 393; 26.4 µM (inactive) with MDA-MB-231; 46.9 µM (inactive) in the test on OVCAR-4; 59.4 µM (inactive) in the test with NCI-H226.

In the case of `COC(=O)c1cc(C(=O)OC)cc(-c2ccc3c(c2)-c2nc4c(c(-c5ccc(OC)cc5)c2CC3)CCc2ccc(-c3cc(C(=O)OC)cc(C(=O)OC)c3)cc2-4)c1`, the concentration for 50% growth inhibition (GI50) is 0.061 µM (active) in the test with K562; 16 µM (inactive) in the test on OVCAR-5; > 100 µM (inactive) in the test on COLO 205; > 100 µM (inactive) in the test with NCI-H23; > 100 µM (inactive) in the test with TK-10; > 100 µM (inactive) in the test with HOP-92. Moreover, the GI50 with SF-295 was > 100 µM (inactive); in the test with NCI-H460, > 100 µM (inactive); in the test with SK-MEL-2, > 100 µM (inactive); with OVCAR-3, > 100 µM (inactive); in the test on HCT-15, over 100 µM; in the test with A498, > 100 µM (inactive). The GI50 with MDA-N, in the test with MDA-MB-231, with OVCAR-4 and in the test on NCI-H226 was > 100 µM (inactive) each time.

Values taken from ChEMBL document CHEMBL1201862, “PubChem BioAssay data set” (2004).
